By viability is commonly meant a read-out of living cells in per cent, often relative to untreated cells.

“And” between values parts separate entries of the source, which are not always exact repeats. Identical values can stand only once.

For series [1], the target named is crude AD brain extracts (tau seeds) in HEK293T tau biosensor cells (Homo sapiens, UniProt P10636). Briefly: Tau biosensor cell seeding assay, screen with crude AD brain extracts. Format: cell-based. To be noted: for Number of seeded aggregates in tau biosensor cells (normalized to confluence), Fig. 2e: 10 μM inhibitor on cells, seeds pre-incubated 16–18 h at 4 °C, individual replicates (n=3), DMSO control 10734.9/12808.5/11145.3; for Inhibition of seeding in biosensor cells: 10 μM screen. From the text:
From the in silico screen, compounds were ranked and 46 were selected for further experimental validation based on the total binding energy of the ligand/fibril complex. The experimental assessment consisted of direct measures of fibril disassembly (Fig. 2d, e and Supplementary Table 3) and assessment of the seeding capability of the products of disassembled AD tau fibrils in a biosensor cell assay. Disaggregating molecules that produce active seeds are undesirable for therapy and are excluded from further study. HEK293T cells expressing CFP- or YFP-fused tau are transduced with exogenous AD tau fibrils. Externally applied AD-tau fibrils then induce the aggregation of the endogenous fluorescent tau, resulting in the formation of FRET-positive intracellular aggregates, visible as bright puncta by fluorescence microscopy (Fig. 2f). Automated image analysis of visible puncta provides an objective quantification of seeded aggregation. […] Although biosensors may be limited in reporting structural characteristics of fibril progeny, they offer exquisitely sensitive measures of tau seeding activity—the ability for fibrils to recruit monomeric protein into fibrillar form, which is thought to be the mechanism for tau spreading in AD.
Human autopsy samples were obtained by the Mayo Clinic Brain Bank and UCLA Pathology Department according to HHS regulations from patients consenting to autopsy. Samples were provided to the researchers of this study as anonymized tissues. For purification of paired helical filaments (PHFs) and straight filaments (SFs) from AD brain tissue, extractions were performed according to the previously published protocol without any modifications. […] For biosensor seeding assays with crude AD brain extracts, fresh-frozen tissue from neuropathologically confirmed AD cases was thawed and cut into a 0.2–0.3 g sections. Tissue was manually homogenized in a 15 ml disposable tube in 1 ml of 50 mM Tris, pH 7.4 with 150 mM NaCl, and then aliquoted to PCR tubes and sonicated in a cuphorn bath for 120 min under 30% power at 4 °C in a recirculating ice water bath, according to reference.
HEK293T cell lines stably expressing tau-K18 P301S-eYFP were obtained from Marc Diamond[25] and used without further characterization or authentication. […] Inhibitors were dissolved in DMSO. […] After twenty minutes, 10 µl of fibrils were added to 90 µl of tau biosensor cells. The number of seeded aggregates was determined by imaging the entire well of a 96-well plate in triplicate using a Celigo Image Cytometer (Nexcelom) in the YFP channel. The number of aggregates in a given image was determined using an ImageJ 2.3.0[50] script, which subtracts the background fluorescence from unseeded cells, and then counts the number of aggregates as peaks with fluorescence above the background using the built-in Particle Analyzer. The number of aggregates was normalized to the confluence of each well, and dose-response plots were generated by calculating the average and standard deviations from triplicate measurements.

The target in the next series is Brain-derived tau PHFs (Homo sapiens, UniProt P10636). Briefly: Dot blot analysis of EGCG time course (GT38, AT8). To be noted: for GT38 dot blot signal (AD tau aggregates), Supp. Fig. 1 / AT8 dot blot signal (total hyperphosphorylated tau), Supp. Fig. 1: replicates. Format: biochemical. As for the experimental part: Samples were spotted onto nitrocellulose membrane, 20 µl were spotted for each condition, spotting 2 µl at a time and allowing to dry in between. The membrane was blocked for 1 h in TBST with 5% milk and washed with TBST three times. The membrane was then incubated with primary antibody (either anti-tau GT38 (obtained from Virginia Lee lab at UPenn) or anti-phospho-tau AT8 (cat # MN1020, lot # UL2906281Z), 1:4000 dilution in 2% milk/TBST solution) for 1 h, washed three times with TBST, incubated with horseradish peroxidase-conjugated secondary antibody (goat anti-mouse IgG H and L (HRP); 1:5000 Dilution in 2% milk/TBST), and washed three times in TBST. Signal was detected with Pierce ECL Plus Western Blotting Substrate (cat # 32132), and the blot was imaged with a Pharos FX Plus Molecular Imager.
Sequence of Brain-derived tau PHFs (P10636 623-695 limits assumed): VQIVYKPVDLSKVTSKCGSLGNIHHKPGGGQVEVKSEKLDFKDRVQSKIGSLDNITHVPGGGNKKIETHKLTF

The next series deals with AD-tau PHF (Homo sapiens, UniProt P10636). Briefly: CryoEM occupancy analysis of EGCG density. To be noted: for Occupancy of density at Site 1 relative to fibril backbone / Occupancy of density at Site 2 relative to fibril backbone / Occupancy of density at Site 3 relative to fibril backbone: map low-pass filtered to 7 Å. Type of series: binding.
Sequence of AD-tau PHF (P10636 623-697 limits assumed): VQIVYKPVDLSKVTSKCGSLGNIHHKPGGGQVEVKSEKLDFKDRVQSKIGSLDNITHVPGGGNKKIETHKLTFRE
In series [2] the target is T1, AD brain-derived tau fibrils (Homo sapiens, UniProt P10636). Kind of series: Western blot of insoluble tau after compound treatment. Format: biochemical. To be noted: 72 h at 37 °C. As for the experimental part:
Proteins were transferred from gel to nitrocellulose membrane using an iBLOT2 system. The membrane was blocked for 1 h in TBST with 5% milk and washed with TBST three times. The membrane was then incubated with primary antibody (anti-tau A0024 (Dako), 1:4000 dilution in 2% milk/TBST solution) for 1 h, washed three times with TBST, incubated with horseradish peroxidase-conjugated secondary antibody (goat anti-mouse IgG H and L (HRP); 1:5000 Dilution in 2% milk/TBST), and washed three times in TBST.

Series [3] concerns the target T1, AD brain-derived tau fibrils. Briefly: Negative stain EM and quantitative EM (qEM) of tau fibrils after compound treatment. Format: biochemical. As for the experimental part: Negatively stained EM Grids were prepared by depositing 6 µl of sample on formvar/carbon-coated copper grids (400 mesh) for 3 min. The sample was rapidly wicked using filter paper without drying the grid and stained with 1% uranyl acetate for 2 min. […] Fibrils were counted from collections of 33 micrographs (in triplicate) for each experimental condition.

For another series, the system named is Neuro2a cells. Briefly: MTT cytotoxicity assay. Type of series: cell-based. As to the method:
(§1) In all, 90 µL of Neuro2a cells were plated on clear 96 well plates (Falcon 353072) at 6000 cells per well and given 24 h to adhere to the plate. Subsequent treatment consisted of PHF samples that were co-incubated with or without 100 µM of small molecules for 48 h at 37 °C, with 10 µl applied per well for a final small molecule concentration of 10 µM. After another 24-h incubation at 37 °C, 20 µl of Thiazolyl Blue Tetrazolium Bromide MTT dye (Sigma; 5 mg/ml stock in DPBS) was added to each well and further incubated for 3.5 h at 37 °C. The assay was arrested by replacement of all media with 100% DMSO and transferred to a SpectraMax MF reader. Background 700 nm readings were subtracted from the absorbance readings at 570 nm. Cells treated with 100% DMSO were designated as 0% viable and those treated only with vehicle were designated as 100% viable. Other well readings were normalized to these values.
A general note: Tetrazolium dyes change colour on reduction, which living cells bring about.

Another series in a line: MTT cytotoxicity assay. Format: cell-based. To be noted: mouse, Neuro2a cells, Neuro2a; final small molecule concentration 10 µM; 24 h; vehicle = 100% viable; individual replicates; read-out: MTT cell viability, compound alone, Fig. 3f. As for the experimental part: as §1
Series [4] concerns biosensor cells (HEK293T). Kind of series: Toxicity to biosensor cells under seeding assay conditions. Type of series: cell-based. To be noted: under the assayed conditions (10 μM screen). As to the method: HEK293T cell lines stably expressing tau-K18 P301S-eYFP were obtained from Marc Diamond[25] and used without further characterization or authentication. Cells were maintained in DMEM (Life Technologies, cat. 11965092) supplemented with 10% (vol/vol) FBS (Life Technologies, cat. A3160401), 1% penicillin/streptomycin (Life Technologies, cat. 15140122), and 1% Glutamax (Life Technologies, cat. 35050061) at 37 °C, 5% CO2 in a humidified incubator. […] Inhibitors were dissolved in DMSO. For seeding, inhibitor-treated seeds were sonicated in a cuphorn water bath for 3 min, and then mixed with 1 volume of […] (Life Technologies, cat. 11668027) prepared by diluting 1 µl of Lipofectamine in 19 µl of OptiMEM. After twenty minutes, 10 µl of fibrils were added to 90 µl of tau biosensor cells. The number of seeded aggregates was determined by imaging the entire well of a 96-well plate in triplicate using a Celigo Image Cytometer (Nexcelom) in the YFP channel. The number of aggregates in a given image was determined using an ImageJ 2.3.0[50] script, which subtracts the background fluorescence from unseeded cells, and then counts the number of aggregates as peaks with fluorescence above the background using the built-in Particle Analyzer. […]

Sequence of crude AD brain extracts (tau seeds) in HEK293T tau biosensor cells (P10636 623-695 limits assumed): as the sequence (P10636 623-695 limits assumed) above
T1 sequence (P10636 623-695 limits assumed): as above

Regarding `O=C(O[C@@H]1Cc2c(O)cc(O)cc2O[C@@H]1c1cc(O)c(O)c(O)c1)c1cc(O)c(O)c(O)c1` [EGCG, Epigallocatechin gallate], in series [1] (listed as EGCG-PBS), the “Number of seeded aggregates in tau biosensor cells (normalized to confluence), Fig. 2e” value was 1.145 and 4.487 and 178.587. The “Inhibition of seeding in biosensor cells” value in series [1] was “prevents the formation of any seeds”. Also, at Brain-derived tau PHFs (37 °C), the “Time at which reduction in aggregate level begins (GT38 dot blot)” value was 1 to 3 h. For the same compound, the “GT38 dot blot signal (AD tau aggregates), Supp. Fig. 1” value on Brain-derived tau PHFs (EGCG incubation 1 h at 37 °C, relative to 0 h) was 0.7905 and 0.6952 and 0.7857; at Brain-derived tau PHFs (EGCG incubation 3 h at 37 °C), 0.6381 and 0.5905 and 0.6857; at Brain-derived tau PHFs (EGCG incubation 6 h at 37 °C), 0.3571 and 0.3381 and 0.6238; at Brain-derived tau PHFs (EGCG incubation 24 h at 37 °C), 0.2286 and 0.2714 and 0.4143. Also, the “AT8 dot blot signal (total hyperphosphorylated tau), Supp. Fig. 1” value on Brain-derived tau PHFs (EGCG incubation 1 h at 37 °C) was 0.7495 and 1.415 and 0.8474; on Brain-derived tau PHFs (EGCG incubation 3 h at 37 °C), 1.189 and 1.169 and 0.7844; at Brain-derived tau PHFs (EGCG incubation 6 h at 37 °C), 1.107 and 1.408 and 0.8471; on Brain-derived tau PHFs (EGCG incubation 24 h at 37 °C), 1.122 and 1.203 and 1.059. The “Occupancy of density at Site 1 relative to fibril backbone” value stood at 43% on AD-tau PHF (1-hour EGCG) and 67% at AD-tau PHF (3 hr. EGCG). For the same compound, the “Occupancy of density at Site 2 relative to fibril backbone” value at AD-tau PHF (1-hour EGCG) is given as 44%; at AD-tau PHF (3 hr. EGCG) it was 56%. For the same compound, the “Occupancy of density at Site 3 relative to fibril backbone” value at AD-tau PHF (1-hour EGCG) is on record as 54%; at AD-tau PHF (3 hr. EGCG), 62%. Further, the “Occupancy of EGCG at Site 1” value on AD-tau PHF (3-h structure) is given as 66%. Moreover, the “Reduction of insoluble tau by Western blot” value in series [2] was “substantially reduce the amount of insoluble tau”. The “Electron microscopy of tau fibrils treated with compound (qualitative)” value in series [3] (negative stain EM) is “nearly gone after 24 h of incubation”. Moreover, the “Quantitation of fibril number on EM images (qEM), Fig. 3c” value in series [3] (relative scale, fibrils alone about 1, individual replicates of 33 micrographs) is 0 and 0.009982. Further, in the series with Neuro2a cells (Neuro 2a (N2a) cells, MTT), the “Neuronal cytotoxicity of compound” value was “no significant cytotoxicity”. Further, the “MTT cell viability, compound alone, Fig. 3f” value with Neuro2a cells (Neuro2a, final small molecule concentration 10 µM, 24 h, vehicle = 100% viable, individual replicates, 10 µM) was 108.947% and 94.1622%. In addition, the viability at 24 h, 10 µM in “MTT cytotoxicity assay” came to 102%.
Turning to `Oc1cccc(-c2c3nc(c(-c4cccc(O)c4)c4ccc([nH]4)c(-c4cccc(O)c4)c4nc(c(-c5cccc(O)c5)c5ccc2[nH]5)CC4)C=C3)c1` [FDA-A4, Temoporfin], in series [1], the “Number of seeded aggregates in tau biosensor cells (normalized to confluence), Fig. 2e” value is 356.976 and 1174.27 and 1749.15; the “Inhibition of seeding in biosensor cells” value is given as “effective inhibitor”. Moreover, the “Toxicity to biosensor cells” value in series [4] is “toxic to biosensor cells”.

The values are drawn from article PMC9481533, “Structure-based discovery of small molecules that disaggregate Alzheimer’s disease tissue derived tau fibrils in vitro” (Nature Communications, 2022).
